Results on two compounds are retold here after US20110189291A1, “DENDRIMER HYDROGELS” (priority 2009, published 2011).

One series can be described thus: physchem. To be noted: for solubility: thermodynamic from solid, saturated concentration (solubility); for solubility / saturated concentration (solubility): room temperature. On the procedure:
Following overnight equilibration at room temperature, the solution was vortexed again and then centrifuged at 10,000 rpm for 5 min to remove undissolved drug. The sample solution was diluted by a factor of 100 in PBS, and absorbance value (Y) at 248 nm was recorded on a GENESYS™ 6 UV-Visual spectrophotometer. Thus, drug concentration (C in μg/mL) was determined using the following regression equation: C=(Y−0.005)/0.063. […] Measurements were done in duplicate.
Following overnight equilibration at room temperature, the solution was vortexed again and then centrifuged to remove undissolved drug. The supernatant was collected, diluted by a factor of 100 in PBS, and its absorbance value (Y) at 248 nm was recorded on a GENESYS™ 6 UV-Visual spectrophotometer. Thus, drug concentration [C] (μg/mL) was determined using the following regression equation: C=(Y−0.005)/0.063 [2]. […] Measurements were done in duplicate.

Series [1] can be described thus: In vitro drug release by dialysis in pH 7.4 PBS at 37° C. In kind it is physicochemical. To be noted: for time for complete release (in words): from eye drop formulations. As to the method: The control eye drop formulation was PBS containing 0.1% brimondien and 0.5% timiolol maleate. […] The dissolution medium was maintained at 37±2° C. and constantly agitated in a shaker incubator. 4. Dissolution medium was completely replaced at all time intervals with 1.5 ml of fresh dissolution medium maintained at 37±2° C. 5. The amount of drug released in the dissolution medium at each time interval was analyzed by LC-MS.

Series [2] deals with Human corneal epithelial cells (HCET). In kind it is cell-based. To be noted: 1 h. As to the method: The uptake of brimonidine and timolol maleate by HCET cells after entrapment of the drugs in a hydrogel was studied. As a control, eye drop formulation of both the drugs in phosphate buffer saline was used. • 1. Human corneal epithelial cells (HCET, passage #40) were seeded in a 48 well plate (BD, Falcon®, Multiwell™ tissue culture plates) at a seeding density of 5000 cells/well. • 2. The cells were allowed to adhere to the surface of the well overnight. • 3. […] The cells were washed twice with 200 μl cold PBS pH 7.4 and twice with 200 μl cold acidic PBS pH 5.0. All the washes were collected. Finally, 200 μl of 1% w/v Triton X 100 solution was transferred to each well and allowed to stand for 30 minutes. • 6. The cells were scraped (dislodged) using a pipette tip and suspension of cells in 1% Triton X 100 solution was collected. • 7. Samples were processed as follows: 100 μl of sample collected as described above was diluted to 500 μl using acetonitrile. The samples were vortexed for 10 minutes and centrifuged at 10,000 rpm for 5 minutes, and then analyzed using LC-MS as described in Table 4. Dorzolamide was used as an internal standard

A short description of series [3]: Ex vivo transcorneal transport. As to the method: 1. Corneas were isolated from freshly excised bovine eyes and mounted in Using chambers. 2. […] Note: Both drugs were present together in this hydrogel/solution cocktail. 3. […] 4. 200 μl of sample was collected from the receiver side with fresh assay buffer replacement at the end of 1, 2, 3, 4 and 6 h. 5. […] 6. Samples were stored at −80° C. prior to analysis. 7. Cumulative percent transport was normalized to the amount of drug present at zero time point.

Series [4] in a line: Ex vivo bovine eye tissue uptake after topical dosing. Type of series: in vitro ADME. On the procedure: 1. […] Eyes were kept in the muffin plate and partially dipped into PBS pH 7.4. 3. 50 μl of hydrogel formulation or solution was instilled gently as an eye drop onto the corneal surface. 4. After every 15 minutes, 50 μl of fresh PBS pH 7.4 was instilled as an eye drop to prevent corneal drying. 5. At the end of 1 h, eyes were dissected and the following tissues were collected: corneal epithelium, stroma, endothelium and aqueous humor. Tissues were stored at −80° C. before sample processing and analysis. 1. Tissues weights were recorded and 0.49 ml of 2% NaOH solution was added to these tissues along with 10 μl of IS of 12.5 μg/ml. 2. Samples were homogenized, sonicated, and extracted with organic solvent. Final reconstitution was done in 0.5 ml of acetonitrile-water mixture (75:25).

SMILES strings stand for the structures. ≈ marks a conversion by molar mass, not a printed value. Where “and” joins values, the source holds several entries; their conditions need not be identical. Equal entries are not always repeated. Structures can show the parent of a compound that is named as a salt. Where two headings read alike, the source gives them in different places.

The solubility is how much of the substance goes into solution per volume. As for `Brc1c(NC2=NCCN2)ccc2nccnc12` [brimonidine], the solubility in the series “physchem” (8.1% (w/v) G3.0-PEG-dA in PBS, aqueous with cosolvent or surfactant or cyclodextrin, in the presence of G3.0-PEG-dA (8.1% w/v in PBS; DH formulation)) came to 696 µg/mL; in the series “physchem” (PBS, aqueous buffer, plain PBS), 392 µg/mL (≈ 1340 µM). Moreover, in the series “physchem” (G3.0-PEG-dA / DH formulation versus plain PBS), the solubility increase is 77.5% and 77.6%. The figures for the “saturated concentration (solubility)” value in the series “physchem” (in the presence of G3.0-PEG-dA (8.1% w/v in PBS; DH formulation)) and in the series “physchem” (plain PBS) were 696 µg/mL and 392 µg/mL, respectively. For the same compound, the “duration of sustained release” value in series [1] (from DH formulation) is roughly 72 h; in series [1] (from hydrogel Formulation C (0.1% brimonidine, 0.5% timolol maleate), 37° C.), 72 h. The “time for complete release (in words)” value in series [1] was “within one hour and a half”. The “Mean % drug content in cell lysate after completion of study (uptake)” value in series [2] is recorded as 76.17%. In addition, the “Mean % drug content in first wash with acidic buffer” value (“Mean % drug content in first wash” for short) in series [2] amounted to 0.00%; in series [2] (pH 7.4) it was 93.13%. The results for the “Mean % drug content in second wash with acidic buffer” value (“Mean % drug content in second wash” below) in series [2] and in series [2] (pH 7.4) were 0.00% and 2.92%, respectively. The “Mean % drug content in supernatant after completion of study” value (“Mean % drug content in supernatant” below) in series [2] is given as 0.00%; in series [2] (pH 7.4) it was 0.06%. Moreover, in series [2], the “uptake with DH formulation higher than with eye drop formulation” value is given as 19 fold. The “corneal transport, hydrogel formulation versus solution (in words)” value in series [3] (at the end of 6 h) is “slightly higher transport”. The “cumulative percentage transport across the cornea” value in series [3] (from the DH formulation, at 6 h) is given as 1.06±0.18%. Besides, the “level in aqueous humor, hydrogel versus eye drop formulation (in words)” value in series [4] (1 h after topical instillation) is reported as “significant difference in drug level was not observed”.

In the case of `CC(C)(C)NC[C@H](O)COc1nsnc1N1CCOCC1` [timolol maleate], in series [1] (from DH formulation), the “duration of sustained release” value is on record as roughly 56 h. Besides, in series [1], the “time for complete release (in words)” value is “within one hour and a half”. In addition, in series [2], the “Mean % drug content in first wash” value is 0.0%, the “Mean % drug content in second wash” value is 14.9% and the “Mean % drug content in supernatant” value worked out at 0.1%. Also, in series [2] (pH 7.4), the “Mean % drug content in first wash” value came out at 0.0%, the “Mean % drug content in second wash” value came to 34.7% and the “Mean % drug content in supernatant” value is 0.2%. Also, in series [3], the “corneal transport, hydrogel formulation versus solution (in words)” value is recorded as “higher from hydrogel”. Also, in series [3] (bovine, 6 h, pH 7), the “cumulative percentage transport across the cornea” value was determined as 13.54±1.83%. Moreover, the “level from hydrogel formulation more than from eye drop solution” value in series [4] (bovine, 1 h, 0.5 %, pH 7.4) amounted to 40%.
